Results reported in patent US10689414B2 (Agios Pharmaceuticals, Inc., priority 2013, dated 2020).

Legend:
IDH1 R132H = IDH1 R132H (Homo sapiens (Human), UniProt O75874, R132H); assay: In vitro NADPH depletion assay for IDH1m R132H inhibitors; format: biochemical; conditions: IDH1 R132H enzyme, read-out: IDH R132H IC50
Procedure: (§1) A test compound is prepared as 10 mM stock in DMSO and diluted to 50× final concentration in DMSO, for a 50 μl reaction mixture. IDH enzyme activity converting alpha-ketoglutarate to 2-hydroxyglutaric acid is measured using a NADPH depletion assay. In the assay the remaining cofactor is measured at the end of the reaction with the addition of a catalytic excess of diaphorase and resazurin, to generate a fluorescent signal in proportion to the amount of NADPH remaining. […] The reaction is started with the addition of 10 μl of Substrate Mix ([…], 5 mM alpha-ketoglutarate, in Assay Buffer) and the mixture is incubated for 90 minutes at room temperature.

U87MG cells = assay: Cellular assay, inhibition of 2-HG production in U87MG cells; format: cell-based
How it was run: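 HT1080 or U87MG cells (U87MG kept with 500 ug/mL G418) seeded at 5000 cells/well and treated with compound at 0.2% final DMSO. Incubated 48 h at 37 °C. 2-HG inhibition determined by LC-MS. Viability read by CellTiter-Glo luminescence at 72 h post-dose.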

IDH1 R132C = IDH1 R132C (Homo sapiens (Human), UniProt O75874, R132C); assay: In vitro NADPH depletion assay for IDH1m R132C inhibitors; format: biochemical; conditions: IDH1 R132C enzyme, read-out: IDH R132C IC50
IDH1 R132C, sequence (O75874 whole entry R132C): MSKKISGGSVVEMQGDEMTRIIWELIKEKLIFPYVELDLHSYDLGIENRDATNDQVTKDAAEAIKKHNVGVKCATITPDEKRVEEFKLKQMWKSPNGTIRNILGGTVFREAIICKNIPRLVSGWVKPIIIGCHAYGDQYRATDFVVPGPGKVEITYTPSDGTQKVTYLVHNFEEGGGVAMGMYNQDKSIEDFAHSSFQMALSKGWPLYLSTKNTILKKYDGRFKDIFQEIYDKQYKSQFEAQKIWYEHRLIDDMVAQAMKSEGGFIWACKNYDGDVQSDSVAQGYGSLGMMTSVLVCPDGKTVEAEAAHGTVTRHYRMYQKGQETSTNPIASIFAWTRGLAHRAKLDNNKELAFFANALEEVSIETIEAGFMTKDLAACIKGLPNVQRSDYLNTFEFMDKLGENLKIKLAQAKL
Procedure: as §1
The concentration of NADPH and alpha-ketoglutarate in the Substrate Buffer is 20 μM and 1 mM, respectively.

[1] = inhibition of 2-HG production, U87MG cells, 48 hours

IDH1 R132H, sequence (O75874 whole entry R132H): as the sequence (O75874 whole entry R132C) above, with C132H counted along it

Row | Compound | IC50 (U87MG cells; Homo sapiens, U-87 MG, 48 h) | further results
1 | O=C(NC1CC(F)(F)C1)[C@H](c1ccccc1Cl)N(C(=O)[C@@H]1CCC(=O)N1c1ccncn1)c1cccc(F)c1 [Compound 22] |  | IC50 (IDH1 R132H): 100 to 500 nM; IC50 (IDH1 R132C): 100 to 500 nM
2 | N#Cc1cccc(N2C(=O)OC[C@H]2C(=O)N(c2cccc3cn[nH]c23)[C@H](C(=O)NC2CCC(F)(F)CC2)c2ccccc2Cl)c1 [Compound 142, (S)—N—((S)-1-(2-Chlorophenyl)-2-(4,4-difluorocyclohexylamino)-2-oxoethyl)-3-(3-cyanophenyl)-N-(1H-indazol-7-yl)-2-oxooxazolidine-4-carboxamide] |  | IC50 (IDH1 R132H): < 100 nM; IC50 (U87MG cells; [1]): < 100 nM; IC50 (IDH1 R132C): < 100 nM
3 | CC(C)(C)c1cccc(N(C(=O)[C@@H]2CCC(=O)N2c2nccc(C#N)n2)[C@H](C(=O)NC2CC(F)(F)C2)c2ccccc2Cl)c1 [Compound 165, (S)—N-(3-(tert-Butyl)phenyl)-N—((S)-1-(2-chlorophenyl)-2-((3,3-difluorocyclobutyl)amino)-2-oxoethyl)-1-(4-cyanopyrimidin-2-yl)-5-oxopyrrolidine-2-carboxamide] | < 100 nM | IC50 (IDH1 R132H): < 100 nM
4 | N#Cc1ccnc(N2C(=O)[C@@H](O)C[C@H]2C(=O)N(c2cccc(F)c2)[C@H](C(=O)NC2CCC(F)(F)CC2)c2ccccc2Cl)n1 [Compound 189, (2S,4S)—N—((S)-1-(2-Chlorophenyl)-2-((4,4-difluorocyclohexyl)amino)-2-oxoethyl)-1-(4-cyanopyrimidin-2-yl)-N-(3-fluorophenyl)-4-hydroxy-5-oxopyrrolidine-2-carboxamide] | < 100 nM | 
5 | C[S@+]([O-])c1cc(F)cc(N(C(=O)[C@@H]2CCC(=O)N2c2cc(C#N)ccn2)[C@H](C(=O)NC2CC(F)(F)C2)c2ccccc2Cl)c1 [Compound 190, (S)—N—((S)-1-(2-Chlorophenyl)-2-(3,3-difluorocyclobutylamino)-2-oxoethyl)-1-(4-cyanopyridin-2-yl)-N-(3-fluoro-5-((S)-methylsulfinyl)phenyl)-5-oxopyrrolidine-2-carboxamide] | < 100 nM | 
6 | N#Cc1ccnc(N2C(=O)CC[C@H]2C(=O)N(c2cncc(F)c2)[C@H](C(=O)NC2CCC(F)(F)CC2)c2ccccc2Cl)c1 [Compound 193, (S)—N—((S)-1-(2-Chlorophenyl)-2-(4,4-difluorocyclohexylamino)-2-oxoethyl)-1-(4-cyanopyridin-2-yl)-N-(5-fluoropyridin-3-yl)-5-oxopyrrolidine-2-carboxamide] | < 100 nM | 
7 | N#Cc1ccnc(N2C(=O)CC[C@H]2C(=O)N(c2cc(F)ccc2F)[C@H](C(=O)NC2CC(F)(F)C2)c2ccccc2Cl)c1 [Compound 197, (S)—N—((S)-1-(2-Chlorophenyl)-2-((3,3-difluorocyclobutyl)amino)-2-oxoethyl)-1-(4-cyanopyridin-2-yl)-N-(2,5-difluorophenyl)-5-oxopyrrolidine-2-carboxamide] | < 100 nM | 
8 | N#Cc1ccnc(N2C(=O)CC[C@H]2C(=O)N(c2cc(F)cc(F)c2)[C@H](C(=O)NC2CC(F)(F)C2)c2c(Cl)cccc2Cl)c1 [Compound 199, (S)-1-(4-Cyanopyridin-2-yl)-N—((S)-1-(2,6-dichlorophenyl)-2-((3,3-difluorocyclobutyl)amino)-2-oxoethyl)-N-(3,5-difluorophenyl)-5-oxopyrrolidine-2-carboxamide] | < 100 nM | 
9 | N#Cc1ccnc(N2C(=O)CC[C@H]2C(=O)N(c2cc(F)cc(C3CC3)c2)[C@H](C(=O)NC2CCC(F)(F)CC2)c2ccccc2Cl)c1 [Compound 202, (S)—N—((S)-1-(2-Chlorophenyl)-2-((4,4-difluorocyclohexyl)amino)-2-oxoethyl)-1-(4-cyanopyridin-2-yl)-N-(3-cyclopropyl-5-fluorophenyl)-5-oxopyrrolidine-2-carboxamide] | < 100 nM | 
10 | N#Cc1ccnc(N2C(=O)CC[C@H]2C(=O)N(c2cc(F)cc(C3CC3)c2)[C@H](C(=O)NC2CC(F)(F)C2)c2ccccc2Cl)c1 [Compound 204, (S)—N—((S)-1-(2-Chlorophenyl)-2-((3,3-difluorocyclobutyl)amino)-2-oxoethyl)-1-(4-cyanopyri-din-2-yl)-N-(3-cyclopropyl-5-fluorophenyl)-5-oxopyrrolidine-2-carboxamide] | < 100 nM | 
11 | N#Cc1ccnc(N2C(=O)CC[C@H]2C(=O)N(c2ccc3[nH]ccc3c2)[C@H](C(=O)NC2CC(F)(F)C2)c2ccccc2Cl)c1 [Compound 206, (S)—N—((S)-1-(2-Chlorophenyl)-2-((3,3-difluorocyclobutyl)amino)-2-oxoethyl)-1-(4-cyanopyridin-2-yl)-N-(1H-indol-5-yl)-5-oxopyrrolidine-2-carboxamide] | < 100 nM | 
12 | N#Cc1cc(F)cc(N(C(=O)[C@@H]2CCC(=O)N2c2cc(C#N)ccn2)[C@H](C(=O)NC2CC(F)(F)C2)c2ccccc2F)c1 [Compound 207, (S)—N-(3-Cyano-5-fluorophenyl)-1-(4-cyanopyridin-2-yl)-N—((S)-2-((3,3-difluorocyclobutyl)amino)-1-(2-fluorophenyl)-2-oxoethyl)-5-oxopyrrolidine-2-carboxamide] | < 100 nM | 
13 | N#Cc1ccnc(N2C(=O)CC[C@H]2C(=O)N(c2cc(F)cc(F)c2)[C@H](C(=O)NC2CC(F)(F)C2)c2ccccc2F)c1 [Compound 208, (S)-1-(4-Cyanopyridin-2-yl)-N—((S)-2-(3,3-difluorocyclobutylamino)-1-(2-fluorphenyl)-2-oxoethyl)-N-(3,5-difluorophenyl)-5-oxopyrrolidine-2-carboxamide] | < 100 nM | IC50 (IDH1 R132H): < 100 nM; IC50 (IDH1 R132C): < 100 nM
14 | (S)—N—((S)-1-(2-Chlorophenyl)-2-((4,4-difluorocyclohexyl)amino)-2-oxoethyl)-1-(4-cyanopyridin-2-yl)-N-(1H-indazol-6-yl)-5-oxopyrrolidine-2-carboxamide [Compound 136] |  | IC50 (U87MG cells; [1]): < 100 nM

Further lines, with some results ahead:

Row | IC50 (U87MG cells; Homo sapiens, U-87 MG, 48 h) | Compound | further results
15 | 100 to 500 nM | O=C(NC1CC(F)(F)C1)[C@H](c1ccccc1Cl)N(C(=O)[C@@H]1CCC(=O)N1c1ccccn1)c1cccc(F)c1 [Compound 5] | IC50 (IDH1 R132H): < 100 nM; IC50 (IDH1 R132C): < 100 nM
16 | < 100 nM | N#Cc1cc(C#N)cc(N(C(=O)[C@@H]2CCC(=O)N2c2cc(C#N)ccn2)C(C(=O)NC2CC(F)(F)C2)c2ccccc2Cl)c1 (stereo partly drawn) [Compound 191, (2S)—N-(1-(2-Chlorophenyl)-2-((3,3-difluorocyclobutyl)amino)-2-oxoethyl)-1-(4-cyanopyridin-2-yl)-N-(3,5-dicyanophenyl)-5-oxopyrrolidine-2-carboxamide] | 
17 | < 100 nM | N#Cc1ccnc(N2C(=O)CC[C@H]2C(=O)N(c2cccc(OC(F)F)c2)[C@H](C(=O)NC2CC(F)(F)C2)c2ccccc2Cl)n1 [Compound 194, (S)—N—((S)-1-(2-Chlorophenyl)-2-((3,3-difluorocyclobutyl)amino)-2-oxoethyl)-1-(4-cyanopyrimidin-2-yl)-N-(3-(difluoromethoxy)phenyl)-5-oxopyrrolidine-2-carboxamide] | 
18 | < 100 nM | N#Cc1ccnc(N2C(=O)CC[C@H]2C(=O)N(c2cc(F)cc(F)c2)C(C(=O)NC2CC(F)(F)C2)c2cccc(Cl)c2Cl)c1 (stereo partly drawn) [Compound 195, (2S)-1-(4-Cyanopyridin-2-yl)-N-(1-(2,3-dichlorophenyl)-2-(3,3-difluoro-cyclobutylamino)-2-oxoethyl)-N-(3,5-difluorophenyl)-5-oxopyrrolidine-2-carboxamide] | 
19 | < 100 nM | N#Cc1ccnc(N2C(=O)CC[C@H]2C(=O)N(c2cc(F)cc(F)c2)[C@H](C(=O)NC2CC(F)(F)C2)c2ncccc2Cl)c1 [Compound 198, (S)—N—((S)-1-(3-Chloropyridin-2-yl)-2-(3,3-difluorocyclobutylamino)-2-oxoethyl)-1-(4-cyanopyridin-2-yl)-N-(3,5-difluorophenyl)-5-oxopyrrolidine-2-carboxamide] | 
20 | < 100 nM | N#Cc1ccnc(N2C(=O)CC[C@H]2C(=O)N(c2cc(F)cc(F)c2)[C@H](C(=O)NC2CC(F)(F)C2)c2cc(Cl)ccc2Cl)c1 [Compound 201, (S)-1-(4-Cyanopyridin-2-yl)-N—((S)-1-(2,5-dichlorophenyl)-2-((3,3-difluorocyclobutyl)-amino)-2-oxoethyl)-N-(3,5-difluorophenyl)-5-oxopyrrolidine-2-carboxamide] | 
21 | < 100 nM | N#Cc1ccnc(N2C(=O)CC[C@H]2C(=O)N(c2ccc3[nH]ncc3c2)[C@H](C(=O)NC2CCC(F)(F)CC2)c2ccccc2Cl)c1 [Compound 203, (S)—N—((S)-1-(2-Chlorophenyl)-2-((4,4-difluorocyclohexyl)amino)-2-oxoethyl)-1-(4-cyanopyridin-2-yl)-N-(1H-indazol-5-yl)-5-oxopyrrolidine-2-carboxamide] | 
22 | < 100 nM | N#Cc1ccnc(N2C(=O)CC[C@H]2C(=O)N(c2cc(F)cc(F)c2)[C@H](C(=O)NC2CC(F)(F)C2)c2ccccc2)c1 [Compound 210, (S)-1-(4-Cyanopyridin-2-yl)-N—((S)-2-(3,3-difluorocyclobutylamino)-2-oxo-1-phenylethyl)-N-(3,5-difluorophenyl)-5-oxopyrrolidine-2-carboxamide] | 
23 | < 100 nM | N#Cc1cc(F)cc(N(C(=O)[C@@H]2CCC(=O)N2c2cc(C#N)ccn2)[C@H](C(=O)NC2CC(F)(F)C2)c2ccccc2)c1 [Compound 211, (S)—N-(3-Cyano-5-fluorophenyl)-1-(4-cyanopyridin-2-yl)-N—((S)-2-(3,3-difluorocyclobutyl-amino)-2-oxo-1-phenylethyl)-5-oxopyrrolidine-2-carboxamide] | 
